Common to all, as to type: cell-based, human
Assay [1] deals with hiPS cell-derived myogenic progenitors. Put plainly: Immunofluorescence staining for MHC and MYOG after terminal differentiation. The conditions noted are these: for Myogenin (MYOG) immunofluorescence: clustering of myogenic nuclei / Myosin heavy chain (MHC) immunofluorescence: fusion, myotube thickness: KOSR-based differentiation medium; for Myosin heavy chain (MHC) immunofluorescence: fusion, myotube thickness: versus untreated control. The method, then:
(§1) Human induced Pluripotent Stem Cells (hiPSC, PLZ) or Embryonic Stem Cells (hESC, H9) were transduced with the lentiviral constructs pSAM2-PAX7-ires-GFP and pFUGW-rtTA to generate doxycycline-inducible PAX7 (iPAX7) PS-cells as previously reported (Darabi, 2012). iPAX7-PS cells were cultured on matrigel-coated flasks using mTeSR1 medium (Stem Cell Technology). Cells were differentiated to myogenic progenitors as previously described (Darabi and Perlingeiro, 2016). Briefly, iPAX7-PS cells were detached with Accumax and 1×10^6 cells were plated in 6 cm non-adherent Petri dishes with mTeSR1 supplemented with 10 uM Y-27632 (ROCK inhibitor) and incubated at 37° C., 5% CO2 on a shaker at 60 RPM for 48 h. Then, medium was replaced with EB Myogenic (EBM) Medium supplemented with 10 uM […] (GSK3-β inhibitor) and 10 uM Y-27632. Three days later supplements were removed by changing to fresh medium. At day 7, EBs were plated on gelatin-coated flasks with EBM medium+10 ng/ml human basic FGF (bFGF) and three days later 1 ug/ml of doxycycline was added to the medium to induce PAX7 expression. Cells were harvested by trypsinization at day 14 and subsequently FACS sorted for GFP(+) expression. From this point, cells are considered as myogenic progenitors and cultured on gelatin-coated flasks using EBM medium+10 ng/ml bFGF+1 ug/ml Dox.
(§2) For terminal differentiation, myogenic progenitors at P3-P5 were plated on gelatin-coated dishes with EBM medium+10 ng/ml bFGF+1 ug/ml Dox. Upon reaching 100% confluency, medium was removed and replaced with knockout serum replacement (KOSR) or horse serum based terminal differentiation medium (TDM) supplemented with 10 uM DAPT, 10 uM BMS-906024.5 days after terminal differentiation, cells were fixed or collected for RNA analysis.
After 5 days of terminal differentiation, cells were washed with PBS and fixed with 4% PFA/PBS for 10 min. Then, cells were permeabilized with 0.3% Triton X-100/PBS for 15 min and blocked with 3% BSA/PBS for 20 min. Cells were incubated with a primary antibody that recognizes all MHC isoforms (MF-20, Developmental Studies Hybridoma Bank) overnight at 4° C. The next day, cells were incubated with an Alexa-555 secondary antibody supplemented with DAPI for 1 h at RT. Cells were analyzed by epifluorescence microscopy.

Assay [2] has as its system hES (H9) and iPS (PLZ) cell-derived myogenic progenitors. Put plainly: RT-qPCR of myotubes differentiated from myogenic progenitors with gamma secretase inhibitors. The conditions noted are these: for mRNA expression level of MHC3 compared to non-treated cells / mRNA expression level of Myogenin compared to non-treated cells: 10 uM, KOSR- or horse serum-based media, 5 days at 37° C. The procedure:
as §1, §2
Differentiated myotubes (5d) were collected with TRIzol (Thermo Fisher Scientific) and RNA was purified using the Direct-zol RNA MiniPrep Plus (Zymo Research) following manufacturer's instructions. cDNA was obtained by RT-PCR using SuperScript VILO (Invitrogen) and qPCR was performed by using the Premix Ex Taq ROX plus (Takara) and TaMan probes (Thermo Fisher Scientific) specific to the genes of interest. qPCR was done with a QuantStudio 6 Flex Real-Time PCR System (Thermo Fisher Scientific). Data was normalized to GAPDH expression.
For orientation: Real-time PCR tracks product formation cycle by cycle.

The test system of assay [3] is myotubes derived from hESC-1, hiPSC-1 and hiPSC-2. Put plainly: Small molecule library screening (Tocriscreen Stem Cell Toolbox), MHC/DAPI area ratio. The conditions noted are these: terminal differentiation. The procedure:
After 24 hours, cells were switched to MM with 1 μg/ml Doxycyline and incubated at 37° C. for 2 days. 1/10th of EBs were then plated on gelatin coated T-75 flasks in MM with 1 μg/ml dox and 5 ng/ml human basic fibroblast growth factor (bFGF). After 4 days, cells were dissociated with 0.25% trypsin-EDTA, FACS sorted for GFP to derive myogenic progenitors which were plated at a density of 2 million/T-75 flask in MM with 1 μg/ml dox and 5 ng/ml bFGF. Once the cells reached 90% confluency, myogenic progenitors were dissociated with 0.25% trypsin-EDTA and passaged at a ratio of 1:6 to 1:8. To induce terminal differentiation, myogenic progenitors at P3-4 were plated at a density of 75,000 cells/24-well plate and allowed to grow confluent for 3 days. The medium was then switched to low nutrient differentiation medium (DM) consisting of DMEM-KO supplemented with 20% KOSR, 1% NEAA, 1% glutamax and 1% penicillin-streptomycin and incubated for five days to derive myotubes. Transplantation Experiment
Small molecule library screening was done using the tocriscreen stem cell toolbox kit (tocris) which consisted of 80 compounds. Myogenic progenitors at passage P3 or P4 were seeded at 12,000 cells/well in 96-well plates (triplicates) and incubated at 37° C. for 3 days to reach 100% confluency. After 3 days, the cells were switched to DM supplemented with 10 μM of the compounds from the library or with DMSO. Cells were incubated in this differentiation medium for 5 days to derive myotubes. Cells were then fixed with 4% PFA and stained for MHC and DAPI. The stained plates were imaged using cytation plate reader and 49 pictures were taken per well to cover most of the area. The images were stitched together and the ratio of area of MHC/DAPI staining was quantified using Image J and normalized to that of DMSO treated cells. […] Different combinations were made with selected compounds and their effect on differentiation was tested and quantified. […]

Assay [4] deals with hiPS cell-derived myogenic progenitors. In words: Western blot for MHC8 protein in terminally differentiated myotubes. Particulars: horse serum-based differentiation medium, TUBB loading control. The procedure: as §1, with “Dox. […]” for “Dox.”
Where [5] appears, read: horse serum-based differentiation medium, hiPS.

With `CN1C(=O)[C@@H](NC(=O)[C@H](CCC(F)(F)F)[C@H](CCC(F)(F)F)C(N)=O)N=C(c2ccccc2)c2ccccc21` [BMS-906024], in assay [1], the “Myogenin (MYOG) immunofluorescence: clustering of myogenic nuclei” value was “induce clustering of the myogenic nuclei” and the “Myosin heavy chain (MHC) immunofluorescence: fusion, myotube thickness” value is reported as “improve the fusion of the nuclei to give rise to thick myotubes”. In addition, in assay [2], the “mRNA expression level of MHC3 compared to non-treated cells” value is reported as “increased mRNA expression levels” and the “mRNA expression level of Myogenin compared to non-treated cells” value is given as “increased mRNA expression levels”.

Consider `CC(NC(=O)Cc1cc(F)cc(F)c1)C(=O)N[C@H](C(=O)OC(C)(C)C)c1ccccc1` (stereo partly shown) [DAPT], for which the myotube differentiation efficiency entry in assay [3] is “promoted higher myotube differentiation efficiency”. Besides, the “neonatal Myosin Heavy Chain (MHC8) protein detection by Western blot” value in assay [4] is “can be detected only in the presence of DAPT”. Moreover, in assay [1], the “Myogenin (MYOG) immunofluorescence: clustering of myogenic nuclei” value is recorded as “induce clustering of the myogenic nuclei” and the “Myosin heavy chain (MHC) immunofluorescence: fusion, myotube thickness” value is recorded as “improve the fusion of the nuclei to give rise to thick myotubes”. The “efficiency of differentiation by MHC and MYOG immunofluorescence” value in assay [1] (horse serum-based (HS) differentiation medium) is “improves the efficiency of the differentiation”. In addition, in assay [2], the “mRNA expression level of MHC3 compared to non-treated cells” value is reported as “increased mRNA expression levels” and the “mRNA expression level of Myogenin compared to non-treated cells” value was “increased mRNA expression levels”. Moreover, in assay [2] (setting [5]), the “expression level of CAPN3 compared to untreated control” value is 5 fold, the “expression level of embryonic myosin heavy chain (MHC3)” value is on record as “enhances the expression levels” and the “expression level of neonatal myosin heavy chain (MHC8)” value was “more than 200 fold”.

Turning to `O=C(NOC[C@H](O)CO)c1ccc(F)c(F)c1Nc1ccc(I)cc1F` [PD 0325901], the myotube differentiation efficiency result in assay [3] is “promoted higher myotube differentiation efficiency”.

As to `NC(=O)c1ccc(-c2nc(-c3ccc4c(c3)OCO4)c(-c3ccccn3)[nH]2)cc1` [SB 431542], the myotube differentiation efficiency entry in assay [3] is “promoted higher myotube differentiation efficiency”.
